# Data: patent US20250213448A1, “COMPOSITION FOR PROTECTING SKIN CONTAINING A THYMOL ESTER-BASED COMPOUND” (Amorepacific Corporation, priority 2024, published 2025)
# Tested on: Normal human epidermal melanocytes
# Assay: Damage inhibition experiment using normal human melanocytes (UVB photoaging, real-time PCR gene expression)
# Format: cell-based
# Method: Melanocytes isolated from normal human skin (Normal human epidermal melanocytes) were treated with ultraviolet B (312 nm) at 20 mJ each, once a day, for two days, and cultured for one month. Melasolv was dissolved in DMSO at 1000×, irradiated with ultraviolet rays, and then immediately placed in a culture medium at 1 and 5 ppm and treated. The cells were grown in a 37° C., 5% CO2 incubator while changing the culture medium containing the experimental material every two days. After the experiment was completed, the cells were dissolved in TRIzol and collected, and total RNA was isolated. Then, cDNA was synthesized therefrom and real-time PCR was performed to compare the relative expression levels of each gene. The RNA was quantified and the same amount of RNA was added to each experimental group, and the expression of each gene was corrected by the expression of GAPDH, a house-keeping gene, to compare the relative expression levels.
# The gene primers used were purchased from APPLIED BIOSYSTEMS as follows: […]
structure (smiles),measurement,setting,value
"COc1cc(/C=C/C(=O)Oc2cc(C)ccc2C(C)C)cc(OC)c1OC [Melasolv, (5-methyl-2-propan-2-ylphenyl) (E)-3-(3,4,5-trimethoxyphenyl) prop-2-enoate]",expression of the XPA gene,"UVB-photoaged melanocytes, 5 ppm of Melasolv, compared with control group, FIG. 4",increased even higher than that of the control group
same,"expression of aging genes (p16, p21)","melanocytes irradiated with UVB (312 nm, 20 mJ, once a day for two days), cultured one month, Melasolv at 1 and 5 ppm, real-time PCR corrected by GAPDH, FIGS. 1 and 2",inhibited in a concentration-dependent manner
same,"expression of DNA repair genes (APEX1, XPA, RPA1) that had decreased due to photoaging","melanocytes irradiated with UVB (312 nm, 20 mJ, once a day for two days), cultured one month, Melasolv at 1 and 5 ppm, real-time PCR corrected by GAPDH, FIGS. 3 to 5",increased
